Experimental data as given in patent publication US4593119A, “Method for treatment or prophylaxis of cardiac disorders” (American Hospital Supply Corporation, priority 1982, dated 1986).
Structures can show the parent of a compound that is named as a salt. Where two headings read alike, the source gives them in different places.

What was measured:
[1] = molecular target: T1, β-adrenergic receptors, guinea pig tracheal strips (Cavia porcellus, UniProt Q8K4Z4); assay: β-blocking activity in vitro, guinea pig tracheal strips (tension response to isoproterenol); type: cell-based; details: for pA2 Trachea: pA2 = -log KB, vs isoproterenol, 60-minute incubation, tracheal tension; for Kb: read-out: pA2 Trachea (converted)
T1 construct: Spiral strips of guinea pig trachea; from tissue; host or cells: guinea pig trachea, spiral strips
T1 sequence (Q8K4Z4 whole entry): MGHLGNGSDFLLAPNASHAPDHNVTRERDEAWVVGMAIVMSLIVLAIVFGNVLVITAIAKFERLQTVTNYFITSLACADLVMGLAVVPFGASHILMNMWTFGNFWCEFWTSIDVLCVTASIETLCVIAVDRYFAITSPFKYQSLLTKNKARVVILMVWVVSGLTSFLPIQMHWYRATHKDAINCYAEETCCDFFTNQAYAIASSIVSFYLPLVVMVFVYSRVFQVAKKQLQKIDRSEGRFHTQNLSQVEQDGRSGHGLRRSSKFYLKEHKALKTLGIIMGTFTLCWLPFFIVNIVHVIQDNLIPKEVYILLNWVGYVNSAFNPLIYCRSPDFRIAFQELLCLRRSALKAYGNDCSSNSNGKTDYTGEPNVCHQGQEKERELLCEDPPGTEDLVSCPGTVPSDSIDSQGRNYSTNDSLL
Description: (§1) Each tissue was suspended between a fixed glass rod and a Statham Universal Transducer connected to a Beckman recorder. Atria were allowed to beat spontaneously under a loading tension of approximately 0.5 g. Changes in rate of response to isoproterenol, a standard β-receptor agonist, were measured in the absence and presence of test compounds. Spiral strips of guinea pig trachea were suspended under 5 g resting tension and incubated with phentolamine, tropolone, and cocaine. Active tension was generated by addition of carbachol (3.0×10^-7 M) and decreases in tension in response to isoproterenol were quantitated. Cumulative concentration response curves were produced with isoproterenol both before and after 60-minute incubation of test compounds with atria and trachea. Compounds with β-blocking activitiy shifted concentration response curves to the right. […] The degree of cardioselectivity was estimated from the ratio KB trachea/KB atria 10(pA2 Atria -pA^2 Trachea). A ratio greater than one indicates cardioselectivity. […]

[2] = system: beta-receptor mediated tachycardia (dog heart rate); assay: beta-blockade in vivo in pentobarbital-anesthetized dogs, 40-minute infusion, inhibition of heart rate response to isoproterenol and recovery
Description: (§2) The duration of beta-blockage was determined in vivo using pentobarbital-anesthetized dogs instrumented for measurement of heart rate using a Beckman cardiotachometer triggered electronically by a phasic aortic blood pressure signal. Both vagus nerves were severed in the cervical region and the animals were mechanically ventilated. Two experimental designs were used. The first employed a 40-minute infusion of test compound and the second used a 3-hour infusion of test compound. In the 40-minute model, isoproterenol was infused into a foreleg vein at the rate of […] to induce a beta-receptor mediated tachcardia. Various doses of test compound were then infused into a femoral vein over a period of 40 minutes. This infusion was then terminated and recovery from blockade was quantitated. […] This cumulative dose is expressed as mg/kg and is an indication of potency. The time period required for 80% recovery of heart rate for each dose of test drug was also measured to quantitate duration of action. […] Test compound were dissolved in 0.9% NaCl and infused at a rate of 0.05 ml/Mg/min or less. In the 3-hour infusion model, bolus doses of isoproterenol ([…]) were used to assess the degree of beta-blockade and recovery from beta-blockage after termination of the infusion. The doses were spaced at 10-minute intervals and were given before, during and following the infusion of test compounds. The infusion rate was adjusted so that the end of the 3-hour infusion period the degree of isoproterenol inhibition averaged about 50% of control.

[3] = system: β-adrenergic receptors, guinea pig right atria; assay: β-blocking activity in vitro, guinea pig right atria (rate response to isoproterenol); type: cell-based
Description: as §1

[4] = disappearance in vitro in dog liver homogenate; type: in vitro ADME; details: 33% (w/v) dog liver homogenate, 37° C., 50 μg test compound; read-out: T1/2 Dog Liver
Description: (§3) The rate of disappearance of a compound is expressed as the half-life (T1/2), which is the time period in which one-half of the initial amount of compound tested disappears. […] At the designated time periods, the test mixtures were removed from the incubator and transferred to a 0° C. ice bath. Acetonitrile (2 mL) was immediately added, and the mixtures were mixed to stop enzymatic hydrolysis. Zero time samples were prepared by adding 2 mL of acetonitrile to denature the proteins prior to addition of the test compounds. […] The half-life of each test compound was determined graphically by plotting the decrease in concentration as a function of time.

[5] = disappearance in vitro in human whole blood; type: in vitro ADME; details: 37° C., 50 μg test compound, read-out: T1/2 Human Blood
Description: as §3

[6] = disappearance in vitro in dog whole blood; type: in vitro ADME; details: 37° C., 50 μg test compound, read-out: T1/2 Dog Blood
Description: as §3

[7] = system: heart rate response to isoproterenol (dog); assay: beta-blockade in vivo in pentobarbital-anesthetized dogs, 3-hour infusion, inhibition of heart rate response to isoproterenol and recovery; details: 80% recovery after 3-hour infusion
Description: as §2

[8] = molecular target: β-adrenergic receptors, guinea pig right atria (Cavia porcellus, UniProt H0W3H1); assay: β-blocking activity in vitro, guinea pig right atria (rate response to isoproterenol); type: cell-based; details: read-out: pA2 Atria (converted)
Sequence of β-adrenergic receptors, guinea pig right atria (Cavia porcellus, UniProt H0W3H1) (H0W3H1 1-470): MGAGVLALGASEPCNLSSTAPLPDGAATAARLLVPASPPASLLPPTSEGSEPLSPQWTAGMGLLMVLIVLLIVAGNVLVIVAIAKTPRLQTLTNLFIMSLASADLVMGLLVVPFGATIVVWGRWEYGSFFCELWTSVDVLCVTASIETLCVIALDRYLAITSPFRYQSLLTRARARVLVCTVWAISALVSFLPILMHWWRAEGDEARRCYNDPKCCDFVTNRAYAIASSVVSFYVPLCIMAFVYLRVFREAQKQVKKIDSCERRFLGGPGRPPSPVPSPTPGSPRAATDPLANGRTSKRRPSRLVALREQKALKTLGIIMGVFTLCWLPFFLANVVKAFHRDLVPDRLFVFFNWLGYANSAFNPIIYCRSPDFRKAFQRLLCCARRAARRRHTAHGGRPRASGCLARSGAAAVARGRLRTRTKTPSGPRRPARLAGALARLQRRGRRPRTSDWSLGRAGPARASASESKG
Description: as §1

[9] = Canis lupus familiaris, iv, 40 min; read-out: Potency mg/kg/40 min
[10] = time for 80% recovery of heart rate after 40-minute i.v. infusion, dogs; in min
[11] = ratio KB trachea/KB atria, greater than one indicates cardioselectivity

Row | Compound | pA2 Trachea [1] | ED50 [2, 9] | 80% Recovery Time [2, 10] | Cardioselectivity [3, 11] | half-life [4] | half-life [5] | half-life [6] | 80% Recovery Time ([7]; in min) | further results
1 | COC(=O)c1ccc(OCC(O)CNC(C)C)cc1.Cl (stereo not shown) [Example I, Methyl 4-[2-Hydroxy 3-(isopropylamino)propoxy]benzoate Hydrochloride] | 5.5 | 3.7 ± 1.3 mg/kg | 34 ± 11 | 19 | > 180 min | > 60 min | 60 min | – | –
2 | COC(=O)CCc1ccc(OCC(O)CNC(C)C)cc1.Cl (stereo not shown) [Example IV, Methyl 3-[4-[2-Hydroxy-3-(isopropylamino)propoxy]-phenyl]propionate Hydrochloride] | – | 1.35 ± 0.52 mg/kg | 12 ± 2 | 30 | < 5 min | 44 min | 41 min | 12 ± 3 | Kb [1]: 2510 nM
3 | COC(=O)c1ccccc1OCC(O)CNC(C)C (stereo not shown) [Example IX, Methyl 2-[2-Hydroxy-3-(isopropylamino)propoxy]benzoate] | 7.9 | 0.176 ± 0.02 mg/kg | 15 ± 2 | 2 | 19 min | 7 min | 38 min | 15 ± 2 | Kb [8]: 6.31 nM
4 | COC(=O)c1ccccc1OCC(O)CNC(C)(C)C (stereo not shown) [Example X, Methyl 2-[2-Hydroxy-3-(t-butylamino)propoxy]benzoate Hydrochloride Hemihydrate] | – | 0.14 ± 0.04 mg/kg | 12 ± 1 | – | 5 min | 7 min | 17 min | 22 ± 5 | –
5 | COC(=O)c1ccccc1OCC(O)CNCCc1ccc(OC)c(OC)c1.O=C(O)C(=O)O (stereo not shown) [Example XI, Methyl 2-[2-Hydroxy-3-(3,4-dimethoxyphenethylamino)propoxy]benzoate Oxalate] | 7.1 | – | – | 16 | 3 min | 8 min | 120 min | 30 ± 4 | –
6 | C=CCOC(=O)c1ccc(OCC(O)CNC(C)C)cc1 (stereo not shown) [Example XIV, 3-Propenyl 4-[2-Hydroxy-3-(isopropylamino)propoxy]benzoate] | – | – | – | 4 | – | – | – | – | Kb [1]: 2000 nM; Kb [8]: 501 nM
7 | C=CCOC(=O)c1ccccc1OCC(O)CNC(C)C (stereo not shown) [Example XVI] | – | – | – | 1 | – | – | – | 36 ± 5 | Kb [1]: 12.6 nM; Kb [8]: 12.6 nM
8 | C=CCOC(=O)c1cccc(OCC(O)CNC(C)C)c1 (stereo not shown) [Example XV] | – | – | – | – | – | – | – | – | Kb [1]: 63.1 nM; Cardioselectivity [3]: 2; Kb [8]: 126 nM; 80% Recovery Time [7]: > 60 min
9 | CCOC(=O)c1ccc(OCC(O)CNC(C)C)cc1.Cl (stereo not shown) [II, Ethyl 4-[2-Hydroxy-3-(isopropylamino)propoxy]benzoate Hydrochloride] | 6.1 | 5.7 ± 1.6 mg/kg | 56 ± 6 | 2.5 | – | > 60 min | 60 min | – | –
10 | COC(=O)Cc1ccc(OCC(O)CNC(C)C)cc1.Cl (stereo not shown) [III, Methyl 4-[2-Hydroxy-3-(isopropylamino)propoxy]phenylacetate hydrochloride] | 5.4 | 2.3 ± 0.6 mg/kg | 20 ± 5 | – | 5 min | 2 min | 60 min | – | –
11 | CC(=O)Nc1ccc(OCC(O)CNC(C)C)cc1 (stereo not shown) [Practolol, reference compound] | – | – | – | – | – | – | – | – | 80% Recovery Time ([2]; time for 80% recovery of heart rate after 40-minute i.v. infusion, dogs): 61 min; 80% Recovery Time [7]: > 60 min
12 | CC(C)NCC(O)COc1cccc2ccccc12 (stereo not shown) [Propranolol, reference compound] | – | – | – | – | – | – | – | – | ED50 ([2]; Canis lupus familiaris, iv, 40 min, read-out: Potency mg/kg/40 min): 0.06 ± 0.01 mg/kg; 80% Recovery Time ([2]; iv, 40 min): 42 ± 9
13 | COC(=O)c1ccc(OCC(O)CNC(C)(C)C)cc1 (stereo not shown) [VIII, Methyl 4-[2-Hydroxy-3-(t-butylamino)propoxy]benzoate] | 5.4 | – | – | – | – | – | – | – | Cardioselectivity [3]: 32
14 | COC(=O)CCc1ccc(OCC(O)CNCCc2ccc(OC)c(OC)c2)cc1 (stereo not shown) [VI] | 5.2 | – | – | – | 2 min | 44 min | 13 min | 14 ± 3 | Cardioselectivity [3]: 20
15 | COC(=O)CCc1ccc(OCC(O)CNC(C)(C)C)cc1 (stereo not shown) [V] | 5.9 | 4.5 ± 1.5 mg/kg | 7 ± 2 | 4 | – | – | – | 15 ± 3 | –
16 | CCCOC(=O)CCc1ccc(OCC(O)CNC(C)C)cc1.Cl (stereo not shown) [XII, n-Propyl 3-[4-[2-Hydroxy-3-(isopropylamino)propoxy]phenyl]propionate Hydrochloride] | 5.2 | – | – | 1.6 | – | – | – | – | –
17 | COC(=O)CCc1ccccc1OCC(O)CNC(C)C (stereo not shown) [XIII] | – | – | – | – | < 2.5 min | 11 min | 120 min | 29 ± 6 | –
